The text below walks through data of ChEMBL document CHEMBL3588834, “Towards bacterial adhesion-based therapeutics and detection methods” (Medchemcomm, 2014).

The subject of data set [1] is Mus musculus. Put plainly: Time duration maintaining effective drug urine level in mouse at 10 mg/kg, ip. The format is ADME, organism-based. The following applies: in vivo.
Data set [2] in a line: Stability in mouse urinary bladder assessed as unchanged drug level at 100 mg/kg, po. The format is ADME, organism-based. Particulars: in vivo.
In data set [3] the test system is Escherichia coli. Put plainly: Antimicrobial activity against uropathogenic Escherichia coli infected in chronic mouse cystitis model assessed as reduction in bacterial levels at 100 mg/kg, po administered as single dose relative to untreated control. It counts as functional.
The test system of data set [4] is Mus musculus. Nature of the data set: Time duration maintaining >10 mM urine level in mouse at 50 mg/kg, po. The format is ADME, organism-based. Particulars: in vivo.
Data set [5] is described as follows: Binding affinity to Pseudomonas aeruginosa LecA.
The nature of data set [6]: Binding affinity to Pseudomonas aeruginosa LecB.
A short description of data set [7]: Inhibition of Pseudomonas aeruginosa LecA by ELISA method. On the technique in general: ELISA stands for enzyme-linked immunosorbent assay.
Data set [8] deals with Streptococcus suis. Nature of the data set: […] of Streptococcus suis by hemagglutination inhibition assay. The format is functional, organism-based.

The compound `CNC(=O)c1cc(C(=O)NC)cc(-c2ccc(O[C@H]3O[C@H](CO)[C@@H](O)[C@H](O)[C@@H]3O)cc2)c1` gave a Time in data set [1] of 8 h. Further, in data set [2], the Stability is listed as > 95%. Further, the “fold change (FC)” value in data set [3] came to 3.
Take `CNC(=O)c1cc(C(=O)NC)cc(-c2ccc(O[C@H]3O[C@H](CO)[C@@H](O)[C@H](O)[C@@H]3O)c(C)c2)c1`: the Time in data set [4] was 6 h.
`CC(C)C[C@H](NC(=O)[C@@H]1CCCN1C(=O)[C@H](CCCCN)NC(=O)c1ccc(O[C@@H]2O[C@H](CO)[C@H](O)[C@H](O)[C@H]2O)cc1)C(N)=O` showed a Kd in data set [5] of 4200 nM.
For the compound `[N-]=[N+]=NCC(=O)Nc1ccc(O[C@@H]2O[C@H](CO)[C@H](O)[C@H](O)[C@H]2O)cc1`, the Kd in data set [5] worked out at 5800 nM.
`OC[C@H]1O[C@@H](Oc2ccc3ccccc3c2)[C@H](O)[C@@H](O)[C@H]1O`: in data set [5], the Kd stood at 4200 nM.
In data set [6], `COC(=O)c1cn([C@@H]2O[C@H](CO)[C@@H](O[C@@H]3O[C@H](C)[C@@H](O)[C@@H](O)[C@@H]3O)[C@H](O)[C@H]2NC(C)=O)nn1` came in with a Kd of 290 nM.
Still for that read-out and setting: with `CO[C@H]1O[C@H](CNS(=O)(=O)c2c(C)cc(C)cc2C)[C@@H](O)[C@H](O)[C@@H]1O` the figure was 3300 nM.
As to `CC(C)(C)c1cc2c(Oc3cn(CC(=O)NCCOCCO[C@@H]4O[C@H](CO)[C@H](O)[C@H](O)[C@H]4O)nn3)c(c1)Cc1cc(C(C)(C)C)cc(c1Oc1cn(CC(=O)NCCOCCO[C@@H]3O[C@H](CO)[C@H](O)[C@H](O)[C@H]3O)nn1)Cc1cc(C(C)(C)C)cc(c1Oc1cn(CC(=O)NCCOCCO[C@@H]3O[C@H](CO)[C@H](O)[C@H](O)[C@H]3O)nn1)Cc1cc(C(C)(C)C)cc(c1Oc1cn(CC(=O)NCCOCCO[C@@H]3O[C@H](CO)[C@H](O)[C@H](O)[C@H]3O)nn1)C2`, the affinity in data set [5], expressed as Kd, was 90 nM.
Regarding `O=C(Cn1cc(CCC(=O)N[C@H]2[C@@H]3OC[C@H]4O[C@@H](OC[C@H]5O[C@@H](OC[C@H]6O[C@@H](OC[C@@H](O3)[C@@H](O)[C@@H]2O)[C@H](NC(=O)CCc2cn(CC(=O)Nc3ccc(O[C@@H]7O[C@H](CO)[C@H](O)[C@H](O)[C@H]7O)cc3)nn2)[C@@H](O)[C@@H]6O)[C@H](NC(=O)CCc2cn(CC(=O)Nc3ccc(O[C@@H]6O[C@H](CO)[C@H](O)[C@H](O)[C@H]6O)cc3)nn2)[C@@H](O)[C@@H]5O)[C@H](NC(=O)CCc2cn(CC(=O)Nc3ccc(O[C@@H]5O[C@H](CO)[C@@H](O)[C@H](O)[C@H]5O)cc3)nn2)[C@@H](O)[C@@H]4O)nn1)Nc1ccc(O[C@@H]2O[C@H](CO)[C@@H](O)[C@H](O)[C@H]2O)cc1`, the Kd in data set [5] amounted to 79 nM.
On to `OC[C@H]1O[C@@H](OCc2cn([C@H]3[C@H](O)[C@@H](O)[C@H](n4cc([C@@H]5O[C@H](CO)[C@@H](n6cc(CO[C@@H]7O[C@H](CO)[C@H](O)[C@H](O)[C@H]7O)nn6)[C@H](O)[C@H]5O)nn4)O[C@@H]3CO)nn2)[C@H](O)[C@@H](O)[C@H]1O`, for which the IC50 in data set [7] is 3500 nM.
`OC[C@H]1O[C@@H](OCc2cn([C@H]3[C@H](O)[C@@H](O)[C@H](c4cn([C@H]5[C@H](O)[C@@H](O)[C@H](n6cc([C@@H]7O[C@H](CO)[C@@H](n8cc([C@@H]9O[C@H](CO)[C@@H](n%10cc(CO[C@@H]%11O[C@H](CO)[C@H](O)[C@H](O)[C@H]%11O)nn%10)[C@H](O)[C@H]9O)nn8)[C@H](O)[C@H]7O)nn6)O[C@@H]5CO)nn4)O[C@@H]3CO)nn2)[C@H](O)[C@@H](O)[C@H]1O` yielded a half-inhibitory concentration (IC50) in data set [7] of 840 nM.
On to `COc1ccc(O[C@@H]2O[C@H](CO)[C@H](O[C@H]3O[C@H](CO)[C@H](O)[C@H](NC(=O)Nc4ccccc4)[C@H]3O)[C@H](O)[C@H]2O)cc1`, for which the IC50 in data set [8] was determined as 30 nM.
Same read-out and setting: to `COCO[C@H]1[C@@H](O[C@@H]2[C@H](O)[C@@H](O)[C@H](Oc3ccc(OC)cc3)O[C@@H]2CO)O[C@H](CO)[C@H](O)[C@@H]1O` belongs 50 nM; to `O=C(CCSCC(CSCCC(=O)NCCO[C@@H]1O[C@H](CO)[C@H](O[C@H]2O[C@H](CO)[C@H](O)[C@H](O)[C@H]2O)[C@H](O)[C@H]1O)(CSCCC(=O)NCCO[C@@H]1O[C@H](CO)[C@H](O[C@H]2O[C@H](CO)[C@H](O)[C@H](O)[C@H]2O)[C@H](O)[C@H]1O)CSCCC(=O)NCCO[C@@H]1O[C@H](CO)[C@H](O[C@H]2O[C@H](CO)[C@H](O)[C@H](O)[C@H]2O)[C@H](O)[C@H]1O)NCCO[C@@H]1O[C@H](CO)[C@H](O[C@H]2O[C@H](CO)[C@H](O)[C@H](O)[C@H]2O)[C@H](O)[C@H]1O`, 2 nM; to `COC(=O)c1cc(OCCNC(=O)c2cc(OCCNC(=O)COCC(=O)NCCO[C@@H]3O[C@H](CO)[C@H](O[C@H]4O[C@H](CO)[C@H](O)[C@H](O)[C@H]4O)[C@H](O)[C@H]3O)cc(OCCNC(=O)COCC(=O)NCCO[C@@H]3O[C@H](CO)[C@H](O[C@H]4O[C@H](CO)[C@H](O)[C@H](O)[C@H]4O)[C@H](O)[C@H]3O)c2)cc(OCCNC(=O)c2cc(OCCNC(=O)COCC(=O)NCCO[C@@H]3O[C@H](CO)[C@H](O[C@H]4O[C@H](CO)[C@H](O)[C@H](O)[C@H]4O)[C@H](O)[C@H]3O)cc(OCCNC(=O)COCC(=O)NCCO[C@@H]3O[C@H](CO)[C@H](O[C@H]4O[C@H](CO)[C@H](O)[C@H](O)[C@H]4O)[C@H](O)[C@H]3O)c2)c1`, 0.3 nM.
In data set [8], `COc1ccc(O[C@@H]2O[C@H](CO)[C@H](O[C@H]3O[C@H](CO)[C@H](O)[C@H](O)[C@H]3O)[C@H](O)[C@H]2O)cc1` had an IC50 of 310 nM.
Turning to `OC[C@H]1O[C@@H](Sc2ccc3ccccc3c2)[C@H](O)[C@@H](O)[C@H]1O`, the Kd in data set [5] was found to be 6300 nM.
The compound `CC(=O)N[C@H]1C(O)O[C@H](CO)[C@@H](O[C@@H]2O[C@@H](C)[C@@H](O)[C@@H](O)[C@@H]2O)[C@@H]1O[C@@H]1O[C@H](CO)[C@H](O)[C@H](O)[C@H]1O` (stereo partly drawn) had an equilibrium dissociation constant (Kd) in data set [6] of 210 nM.
For `OC[C@H]1O[C@@H](OCc2cn([C@H]3[C@H](O)[C@@H](O)[C@H](c4cn([C@H]5[C@H](O)[C@@H](O)[C@H](n6cc([C@@H]7O[C@H](CO)[C@@H](n8cc(CO[C@@H]9O[C@H](CO)[C@H](O)[C@H](O)[C@H]9O)nn8)[C@H](O)[C@H]7O)nn6)O[C@@H]5CO)nn4)O[C@@H]3CO)nn2)[C@H](O)[C@@H](O)[C@H]1O`, the Kd in data set [5] amounted to 28 nM. The IC50 in data set [7] is 2.7 nM.
As for `O=C[C@H](O)[C@@H](O)[C@@H](O)[C@H](O)CO` [GALACTOSE], in data set [5], the Kd stood at 87500 nM.

As usually defined, the Kd is the free concentration of one partner at which half of the binding sites on the other are occupied at equilibrium, for simple one-to-one binding. Higher therefore signals weaker binding. Usually IC50 stands for the concentration that gives 50% inhibition. A low value points to greater potency.
